Experiments:
[1] = molecular target: T1, Staphylococcus aureus McsB (Staphylococcus aureus, UniProt Q2G0P6); assay: biochemical; set-up: Thermal shift assay (SYPRO Orange) of purified His-tagged McsB, melting temperature shift versus DMSO; details: TSA, purified McsB
T1 construct: full length, His-tagged, pET-28a(+), expressed in E. coli BL21(DE3), Ni-NTA purified, ~42 kDa; tag kept (anti-His blot); E. coli lysate containing it used for CETSA
Protocol: The thermal shift assay (TSA) was performed by incubating 0.1 µg/µl of purified McsB in assay buffer (50 mM sodium phosphate, 300 mM NaCl, pH 7.4) with 10X SYPRO Orange fluorescent dye (ThermoFisher Scientific, USA) in a final reaction volume of 20 µl. For primary screening, compounds from the Pandemic Response Box were tested in a pooled format (10 compounds per pool at 10 µM each, 40 pools total). Each pool was incubated with the protein-dye mixture for 1 h at 4 °C, followed by thermal denaturation (25–99 °C, at a ramp rate of 0.5 °C/s). Fluorescence was monitored at 470/586 nm (excitation/emission) using a QuantStudio 5 Real-Time PCR System (Applied Biosystems, ThermoFisher Scientific, USA). Compounds from pools that induced a significant increase in McsB melting temperature (Tm) relative to a DMSO control– indicating engagement with the target protein– were further evaluated individually at 10 µM. All Tm values were determined from derivative curves (dF/dT) using Protein Thermal Shift Software v1.4 (ThermoFisher Scientific, USA) and represent the average of at least three independent replicates (n ≥ 3). Recombinant McsB was expressed in E. coli BL21(DE3) cells and purified using Ni-NTA resin. SDS-PAGE and western blot analysis confirmed the isolation of a ~ 42 kDa His-tagged protein (Fig. 1), consistent with previous reports. The Pandemic Response Box was divided into 40 pools containing 10 compounds each and screened for stabilizing ligands of the purified McsB using TSA. Three groups- B4, C3 and E3- produced the most pronounced increases in McsB melting temperature, elevating it from 54.5 °C to 63.1, 64.0 and 62.8 °C, respectively (Fig. 2A). To identify the active compounds, we screened the 30 individual compounds from these pools, and found nine compounds that increased McsB melting temperature by 0.5–1.2 °C (Fig. 2B and C). Of these, seven induced statistically significant shifts, with MMV1593539 yielding the greatest stabilization (ΔTm = 1.2 ± 0.1 °C, p < 0.0001).

[2] = molecular target: T1, Staphylococcus aureus McsB; set-up: CETSA, anti-His western blot, shift of McsB aggregation temperature; details: CETSA, aggregation temperature shift; binder

T1 sequence (Q2G0P6 whole entry): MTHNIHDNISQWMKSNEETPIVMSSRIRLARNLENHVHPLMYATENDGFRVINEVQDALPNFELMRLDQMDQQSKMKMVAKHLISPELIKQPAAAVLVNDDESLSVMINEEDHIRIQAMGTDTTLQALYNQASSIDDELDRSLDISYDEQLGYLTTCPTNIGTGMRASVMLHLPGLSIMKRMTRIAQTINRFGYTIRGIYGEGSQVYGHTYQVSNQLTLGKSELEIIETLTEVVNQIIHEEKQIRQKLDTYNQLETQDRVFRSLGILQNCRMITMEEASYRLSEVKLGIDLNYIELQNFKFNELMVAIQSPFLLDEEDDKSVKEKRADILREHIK

SMILES	ΔTm at 10 µM [1]	ΔTagg [2]
Cn1cc(NC(=O)c2cc(NC(=O)c3ccc(/C=C/c4cnc5ccccc5c4)cc3)cn2C)cc1C(=O)NCCN1CCOCC1 [MMV1634391]	0.473 ± 0.374 °C	
Nc1nc(-c2ccccc2)nc2[nH]nc(Nc3ccc(C(F)(F)F)cc3)c12 [MMV1633968, 6-phenyl-3-N-[4-(trifluoromethyl)phenyl]-1H-pyrazolo[3,4-d]pyrimidine-3,4-diamine]	0.78 ± 0.081 °C	
Nc1nc2c(Cc3cccnc3)c[nH]c2c(=O)[nH]1 [MMV1782355]	0.677 ± 0.098 °C	0.63 ± 0.54 °C
CCCC(=O)OCCc1ccccc1 [MMV1578899, 2-phenylethyl butanoate 2-phenylethyl butanoate]	0.9 ± 0.412 °C	0.78 ± 0.339 °C

Reference: paper PMC12055656, “Screening the Pandemic Response Box identifies novel ligands of the Staphylococcus aureus protein arginine kinase, McsB” (Molecular Biology Reports, 2025)
